Reference: patent US5578566A, “KGF receptor-derived antagonists of KGF binding” (The United States of America as represented by the …, priority 1993, dated 1996)
Values belong to the molecule of their own block, whether it stands above or below them. No end group written: not given here.

Assays:
KGF receptor (KGFR) = target: T1, KGF receptor (KGFR) (Mus musculus, UniProt P21803); assay: [125I]-KGF binding to NIH/3T3 cells overexpressing KGFR (competition); settings: NIH3T3/KGFR transfectants; read-out: displacement of 50% of the radiolabeled KGF
T1 construct: expressed in transfected cells; host or cells: NIH/3T3
Method: Values shown are the mean of triplicate samples. Results are representative of three separate experiments.
[^125 I]-KGF binding to NIH/3T3 cells overexpressing KGFR was measured as described in Bottaro et al., supra. Competition studies were performed with unlabeled KGF or peptides as indicated.

Solubility in water = assay type: physicochemical
KGF = target: T2, KGF (Homo sapiens, UniProt P21781); assay: KGF radioimmunoassay: immunoprecipitation of [125I]-KGF by monoclonal antibody 1G4; assay type: binding
T2 construct: made in house
T2 sequence (P21781 32-194): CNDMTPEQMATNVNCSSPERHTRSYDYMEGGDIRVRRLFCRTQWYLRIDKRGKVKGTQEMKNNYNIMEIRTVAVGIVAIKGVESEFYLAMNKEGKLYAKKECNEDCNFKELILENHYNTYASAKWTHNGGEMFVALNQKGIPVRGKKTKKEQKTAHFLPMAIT
Method: Upper Panel: Immunoprecipitation of [^125 I]-KGF competed by KGF, aFGF, aFGF+heparin (30 μg/ml), peptide 412 (SEQ ID NO 2) or peptide 341. Lower Panel: Immunoprecipitation of [^125 I]-KGF competed by KGF, KGF+heparin (1, 10, or 30 μg/ml, as indicated), peptide 412 (SEQ ID NO 2), or peptide 412 (SEQ ID NO 2)+heparin (1, 10, or 30 μg/ml, as indicated). Values are the mean of duplicate samples, expressed as % maximum [^125 I]-KGF bound. Raw values for background and maximum [^125 I]-KGF bound were approximately 300 and 12,000 cpm/sample, respectively. Results are representative of three separate experiments.
[^125 I]-KGF was immunoprecipitated by 1G4 in the presence of unlabeled KGF, aFGF, or peptides as indicated. Briefly, 1G4 (4 ng/ml final concentration), [^125 I]-KGF (30,000 cpm), and appropriate competitors were mixed in 200 μl of buffer containing 10 mM Tris (pH 7.4), 130 mm NaCl, 1 mM EDTA, 10 mM KC1, 1% NP-40, 0.1% SDS, 0.05% Tween-20, and 0.3% nonfat dry milk, and incubated for 24h at 4° C. Antigen-antibody complex was recovered by adding 30 ul (50% suspension) GammaBind-G Sepharose, incubating an additional 30 min at 4° C. (turning gently), and brief centrifugation (5 min at 14,000×g, 4° C.). Pelleted material was washed three times ([…] each) with cold buffer, and radioactivity was measured by gamma counting.

KGF mitogenic activity = settings: Ron et al.; cited from earlier work

T1 sequence (P21803 22-707 isoform P21803-2 limits assumed): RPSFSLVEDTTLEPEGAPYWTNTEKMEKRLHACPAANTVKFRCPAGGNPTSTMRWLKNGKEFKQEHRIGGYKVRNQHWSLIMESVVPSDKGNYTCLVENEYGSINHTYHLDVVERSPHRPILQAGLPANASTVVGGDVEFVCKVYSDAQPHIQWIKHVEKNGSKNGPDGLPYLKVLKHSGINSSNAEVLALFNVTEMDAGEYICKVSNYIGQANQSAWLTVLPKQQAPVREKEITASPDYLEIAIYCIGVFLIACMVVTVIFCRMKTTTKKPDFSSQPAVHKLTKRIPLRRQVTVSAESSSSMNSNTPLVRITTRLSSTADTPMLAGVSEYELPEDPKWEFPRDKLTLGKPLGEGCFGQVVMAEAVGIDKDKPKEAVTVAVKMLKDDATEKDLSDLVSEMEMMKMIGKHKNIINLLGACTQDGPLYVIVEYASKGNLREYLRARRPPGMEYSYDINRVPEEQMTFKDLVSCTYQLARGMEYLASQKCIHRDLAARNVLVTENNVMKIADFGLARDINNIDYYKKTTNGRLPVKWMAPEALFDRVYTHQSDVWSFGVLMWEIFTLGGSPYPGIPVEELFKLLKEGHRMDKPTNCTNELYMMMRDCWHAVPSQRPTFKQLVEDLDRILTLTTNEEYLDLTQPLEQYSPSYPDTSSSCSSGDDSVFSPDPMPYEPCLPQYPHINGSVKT

Molecule: HSGINSSNAEVLALFNVTEMDAGEY [peptide 412]
IC50 (KGF receptor (KGFR)): ~4 µM
water solubility relative to its highest ED50 (Solubility in water): > 3000 fold
IC50 (KGF; KGF RIA, read-out: concentration required to achieve 50% displacement of [125I]-KGF from 1G4): ~1 µM
Kd (KGF; consistent with data from receptor binding assay and RIA, read-out: Kd for KGF/peptide interactions): 1 to 2 µM

competition / displacement of [125I]-KGF from 1G4 (KGF; KGF RIA): had no effect
Molecule: heparin [reference compound]
effect on KGF mitogenesis (KGF mitogenic activity): inhibits KGF mitogenesis

IC50 (KGF receptor (KGFR)): ~4 µM
water solubility relative to its highest ED50 (Solubility in water): approximately 30 fold
solubility (Solubility in water; read-out: limit of solubility in water): 125 µM
Molecule: HSGINSSNAEVLALFNVTEM [peptide 367]

competition in the KGF RIA with addition of heparin (KGF; heparin 30 μg/ml): did not cause aFGF to compete
B1: aFGF: Acidic FGF purified from bovine brain, from Upstate Biotechnology (protein, UniProt P03968 16-155, looked up)
Fibroblast growth factor 1: FNLPLGNYKKPKLLYCSNGGYFLRILPDGTVDGTKDRSDQHIQLQLCAESIGEVYIKSTETGQFLAMDTDGLLYGSQTPNEECLFLERLEENHYNTYISKKHAEKHWFVGLKKNGRSKLGPRTHFGQKAILFLPLPVSSD
competition / displacement of [125I]-KGF from 1G4 (KGF; KGF RIA): but not aFGF, even at a 1000-fold higher concentration
